Experiments:
[1] = system: Phenylalanine aptamer (on 8 nm SiO2 blocking layer) (DNA, aptamer) CGACCGCGTTTCCCAAGAAAGCAAGTATTGGTTGGTCG; test: square wave voltammetry, electrochemical aptamer sensor; details: 1x PBS, room temperature, 300 Hz, 50 mV amplitude, apparent, immobilised aptamer, n = 3 electrodes
[2] = system: Phenylalanine aptamer (on gold with alkylthiolate/MCH blocking layer) (DNA, aptamer) CGACCGCGTTTCCCAAGAAAGCAAGTATTGGTTGGTCG; test: as above; details: 1x PBS (cation concentrations not given); apparent; 300 Hz; immobilised aptamer; whether own (Figure A2) or literature value not explicit

## N[C@@H](Cc1ccccc1)C(=O)O
[1]
  binding constant: 12 µM
[2]
  binding constant: 400 µM
